In patent US9656990B2, “Cathepsin cysteine protease inhibitors” (Merck Sharp & Dohme Corp., priority 2014, dated 2017):

How the values were obtained:
human cathepsin K = human cathepsin K (UniProt P43236, Y175D/V274L, species not given); assay: Cathepsin K Assay; assay type: biochemical; settings: IP from dose response curve; Z-Leu-Arg-AMC substrate, pH 5.5; read-out: hrbCat K (IP (nM))
human cathepsin F = molecular target: T1, human cathepsin F (Homo sapiens, UniProt Q9UBX1); assay: Cathepsin F Assay; assay type: biochemical; settings: IP from dose response curve; Z-Phe-Arg-AMC substrate, pH 5.5; read-out: hCat F (IP (nM))
T1 sequence (Q9UBX1 271-484): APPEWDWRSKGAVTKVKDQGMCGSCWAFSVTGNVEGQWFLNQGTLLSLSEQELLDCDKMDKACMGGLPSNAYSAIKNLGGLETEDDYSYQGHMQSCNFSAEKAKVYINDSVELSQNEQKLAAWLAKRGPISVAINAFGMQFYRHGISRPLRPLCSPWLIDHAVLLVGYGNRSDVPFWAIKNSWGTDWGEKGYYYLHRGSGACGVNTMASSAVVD
Method in brief: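 Human cathepsin F (10 nM) preincubated 15 min at room temperature with compounds in 50 mM MES pH 5.5, 2.5 mM EDTA, 2.5 mM DTT, 10% DMSO. Z-Phe-Arg-AMC (8 μM) added; AMC release read by fluorescence (Ex 360/Em 460 nm) over 20 min, inhibition fit to dose-response model.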

SMILES	IC50 (human cathepsin K) [nM]	IC50 (human cathepsin F) [nM]
N#CC1(NC(=O)[C@@H]2C[C@@H](F)CC[C@H]2c2nn(-c3ccc(F)cc3)cc2-c2ccc(N3CCS(=O)(=O)CC3)cc2)CC1 [Example 112, (1R,2R,5S)-N-(1-cyanocyclopropyl)-2-(4-(4-(1,1-dioxidothiomorpholino)phen-yl)-1-(4-fluorophenyl)-1H-pyrazol-3-yl)-5-fluorocyclohexanecarboxamide]	1.33	922
N#CC1(NC(=O)[C@@H]2CCCC[C@H]2c2nn(-c3ccccc3C(F)(F)F)cc2-c2ccc(N3CCS(=O)(=O)CC3)cc2)CC1 [Example 120, (1R,2R)-N-(1-cyanocyclopropyl)-2-(4-(4-(1,1-dioxidothiomorpholino)phen-yl)-1-(2-(trifluoromethyl)phenyl)-1H-pyrazol-3-yl)cyclohexanecarboxamide]	6.72	3120
CN=S1(=O)CCN(c2ccc(-c3cn(-c4ccc(F)cn4)nc3[C@@H]3CC[C@H](F)C[C@H]3C(=O)NC3(C#N)CC3)cc2)CC1 [Example 17, (1R,2R,5S)-N-(1-cyanocyclopropyl)-5-fluoro-2-(1-(5-fluoropyridin-2-yl)-4-(4-(1-(methylimino)-1-oxidothiomorpholino)phenyl)-1H-pyrazol-3-yl)cyclohexanecarboxamide]	3.22	1410
N#CC1(NC(=O)[C@@H]2CCCC[C@H]2c2nn(-c3ccc(F)cc3)cc2-c2ccc(C(=O)N3CCNC(=O)C3)cc2)CC1 [Example 89, (1R,2R)-N-(1-cyanocyclopropyl)-2-(1-(4-fluorophenyl)-4-(4-(3-oxopiperazine-1-carbonyl)phenyl)-1H-pyrazol-3-yl)cyclohexanecarboxamide]	9.37	989
C[C@@H](C#N)NC(=O)[C@@H]1C[C@@H](F)CC[C@H]1c1nn(-c2ncccc2F)cc1-c1ccc(N2CCS(=N)(=O)CC2)cc1 [Example 57, (1R,2R,5S)-N-((S)-1-cyanoethyl)-5-fluoro-2-(1-(3-fluoropyridin-2-yl)-4-(4-(1-imino-1-oxidothiomorpholino)phenyl)-1H-pyrazol-3-yl)cyclohexanecarboxamide]	8.3	7770
CC(C#N)NC(=O)[C@@H]1CCC(F)(F)C[C@H]1c1nn(-c2ccc(F)cn2)cc1-c1ccc(N2CCS(=N)(=O)CC2)cc1 (single isomer, unassigned) [Example 23, (1R,2R)-N-((S or R)-1-cyanoethyl)-4,4-difluoro-2-(1-(5-fluoropyridin-2-yl)-4-(4-(1-imino-1-oxidothiomorpholino)phenyl)-1H-pyrazol-3-yl)cyclohexanecarboxamide]	1.07	348
N#CC1(NC(=O)[C@@H]2CCCC[C@H]2c2nn(-c3cnc(O)nc3)cc2-c2ccc(N3CCS(=O)(=O)CC3)cc2)CC1 [Example 170, (1R,2R)-N-(1-cyanocyclopropyl)-2-(4-(4-(1,1-dioxidothiomorpholino)phen-yl)-1-(2-hydroxypyrimidin-5-yl)-1H-pyrazol-3-yl)cyclohexanecarboxamide]	1.88	2530
N#CC1(NC(=O)[C@@H]2CCCC[C@H]2c2nn(-c3ccc(F)cc3)cc2-c2ccc(C(=O)N3CCC(O)CC3)cc2)CC1 [Example 90, (1R,2R)-N-(1-cyanocyclopropyl)-2-(1-(4-fluorophenyl)-4-(4-(4-hydroxypiperidine-1-carbonyl)phenyl)-1H-pyrazol-3-yl)cyclohexanecarboxamide]	8.01	1760
CC(C)[C@@H](C#N)NC(=O)[C@@H]1CCC(F)(F)C[C@H]1c1nn(-c2ncccc2F)cc1-c1ccc(N2CCS(=N)(=O)CC2)cc1 [Example 35, (1R,2R)-N-((S)-1-cyano-2-methylpropyl)-4,4-difluoro-2-(1-(3-fluoropyridin-2-yl)-4-(4-(1-imino-1-oxidothiomorpholino)phenyl)-1H-pyrazol-3-yl)cyclohexanecarboxamide]	9.69	4890
CS(=O)(=O)c1ccc(-c2cn(-c3ccccc3)nc2C2CCC(F)(F)CC2C(=O)NCC#N)cc1 (racemic) [Example 76, (1R,2R and 1S,2S)-N-(cyanomethyl)-5,5-difluoro-2-(4-(4-(methylsulfonyl)phenyl)-1-phenyl-1H-pyrazol-3-yl)cyclohexanecarboxamide]	0.8	11
CC(C)(C)N=S1(=O)CCN(c2ccc(-c3cn(-c4ccc(F)cc4)nc3[C@@H]3CCCC[C@H]3C(=O)NC3(C#N)CC3)cc2)CC1 [Example 18, (1R,2R)-2-(4-(4-(1-(tert-butylimino)-1-oxidothiomorpholino)phenyl)-1-(4-fluorophenyl)-1H-pyrazol-3-yl)-N-(1-cyanocyclopropyl)cyclohex-anecarboxamide]	5	1290
N#CC1(NC(=O)[C@@H]2CCCC[C@H]2c2nn(-c3cncc(Cl)c3)cc2-c2ccc(N3CCS(=O)(=O)CC3)cc2)CC1 [Example 8, (1R,2R)-2-(1-(5-Chloropyridin-3-yl)-4-(4-(1,1-dioxidothiomorpholino)phenyl)-1H-pyrazol-3-yl)-N-(1-cyanocyclopropyl)cyclohexanecarboxamide]	0.75	215
N#CC1(NC(=O)[C@@H]2CC(F)(F)CC[C@H]2c2nn3ccccc3c2-c2ccc(N3CCS(=O)(=O)CC3)cc2)CC1 [Example 28, (1R,2R)-N-(1-cyanocyclopropyl)-2-(3-(4-(1,1-dioxidothiomorpholino)phen-yl)pyrazolo[1,5-a]pyridin-2-yl)-5,5-difluorocyclohexanecarbox-amide]	1.94	363
C[C@@H](C#N)NC(=O)[C@@H]1CCC(F)(F)C[C@H]1c1nn(-c2ncccc2F)cc1-c1ccc(N2CCS(=N)(=O)CC2)cc1 [Example 45, (1R,2R)-N-((S)-1-cyanoethyl)-4,4-difluoro-2-(1-(3-fluoropyridin-2-yl)-4-(4-(1-imino-1-oxidothiomorpholino)phenyl)-1H-pyrazol-3-yl)cyclohexanecarboxamide]	6.61	5480
N#Cc1ccc(-n2cc(-c3ccc(N4CCS(=O)(=O)CC4)cc3)c([C@@H]3CCCC[C@H]3C(=O)NC3(C#N)CC3)n2)c(F)c1 [Example 132, (1R,2R)-2-(1-(4-cyano-2-fluorophenyl)-4-(4-(1,1-dioxidothiomorpholino)phen-yl)-1H-pyrazol-3-yl)-N-(1-cyanocyclopropyl)cyclohex-anecarboxamide]	2.51	733
CN=S1(=O)CCN(c2ccc(-c3cn(-c4ccc(F)cn4)nc3[C@@H]3CC[C@H](F)C[C@H]3C(=O)NC3(C#N)CC3)cc2)CC1 [Example 37, (1R,2R,5S)-N-(1-cyanocyclopropyl)-5-fluoro-2-(1-(5-fluoropyridin-2-yl)-4-(4-(1-(methylimino)-1-oxidothiomorpholino)phenyl)-1H-pyrazol-3-yl)cyclohexanecarboxamide]	1.76	1660
N#CC1(NC(=O)[C@@H]2CCCC[C@H]2c2nn(-c3ccc(C(F)(F)F)cn3)cc2-c2ccc(N3CCS(=O)(=O)CC3)cc2)CC1 [Example 143, (1R,2R)-N-(1-cyanocyclopropyl)-2-(4-(4-(1,1-dioxidothiomorpholino)phen-yl)-1-(5-(trifluoromethyl)pyridin-2-yl)-1H-pyrazol-3-yl)cyclohexanecarboxamide]	1.17	395
